Entries after “also recorded” stand apart in the source; their conditions may differ.
What was measured:
[1] = molecular target: human platelet 12-lipoxygenase (12-LOX) (Homo sapiens (Human), UniProt P18054); settings: for IC50: read-out: IC50 [+SD], Table 1, UV-vis cuvette-based assay in triplicate
[2] = molecular target: human epithelial 15-lipoxygenase-2 (15-LOX-2) (Homo sapiens (Human), UniProt O15296); assay: biochemical
washed human platelets [3] = assay: PAR4-AP-induced platelet aggregation; type: cell-based
Procedure: (§1) Blood was centrifuged at 200 g for 13 min at room temperature.

washed human platelets [4] = assay: PAR4-AP-induced calcium mobilization; type: cell-based; settings: 200 μM PAR4-AP; increasing concentrations
Procedure: as §1

[5] = test system: human donor islet preparations; assay: Glucose-stimulated insulin secretion in human islets; type: cell-based; settings: cytokines (TNFα, IL-1β, IFNγ); 3 mM or 18 mM glucose
Procedure: FIGS. 3D and 3E show results from glucose-stimulated insulin secretion in human donor islet preparations in response to 3 mM glucose (Low) or 18 mM glucose (High) for control (untreated) islets. […] FIGS. 3D and 3E represent results obtained in different human donor islet preparations.

[6] = PBS buffer (pH 7.4) solubility; type: physicochemical
[7] = Microsomal stability (rat); type: in vitro ADME
mouse plasma stability = type: in vitro ADME
[8] = Stability in aqueous buffers and glutathione; type: physicochemical
12-LOX = 12-LOX (Homo sapiens (Human), UniProt P18054)
12-LOX, sequence (P18054 whole entry): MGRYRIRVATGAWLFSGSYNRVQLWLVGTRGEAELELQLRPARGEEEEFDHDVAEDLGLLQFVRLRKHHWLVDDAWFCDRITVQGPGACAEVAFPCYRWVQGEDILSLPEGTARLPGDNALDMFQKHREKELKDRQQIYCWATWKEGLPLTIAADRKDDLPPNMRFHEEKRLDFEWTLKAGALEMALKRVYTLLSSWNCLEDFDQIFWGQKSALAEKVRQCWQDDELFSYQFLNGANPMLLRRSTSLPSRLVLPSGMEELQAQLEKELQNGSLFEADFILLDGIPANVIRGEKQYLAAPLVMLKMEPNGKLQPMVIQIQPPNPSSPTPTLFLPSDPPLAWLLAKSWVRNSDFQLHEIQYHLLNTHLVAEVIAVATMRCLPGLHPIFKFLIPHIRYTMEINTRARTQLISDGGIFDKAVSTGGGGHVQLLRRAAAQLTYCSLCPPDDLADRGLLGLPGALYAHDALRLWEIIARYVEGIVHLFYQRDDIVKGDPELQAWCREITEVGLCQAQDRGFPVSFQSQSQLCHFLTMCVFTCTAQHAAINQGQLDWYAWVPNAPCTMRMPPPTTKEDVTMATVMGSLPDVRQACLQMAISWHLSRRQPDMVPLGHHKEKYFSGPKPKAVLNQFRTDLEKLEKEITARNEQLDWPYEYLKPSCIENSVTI
Procedure: Reactions were initiated by adding substrate (range 1-5 μM AA) to approximately 30 nM 12-LOX in a constantly stirring 2 mL cuvette containing 25 mM HEPES buffer (pH 7.5), in the presence of 0.01% Triton X-100. […] Kinetic data were obtained by recording initial enzymatic rates, at varied substrate and inhibitor concentrations, and subsequently fitted to the Henri-Michaelis-Menten equation, using KaleidaGraph (Synergy) to determine the microscopic rate constants, Vmax (μmol/min/mg) and Vmax/KM (μmol/min/mg/μM).

Mouse beta cells (BTC3) = assay: Mouse Beta cells (12-HETE Inhibition) Assay; settings: AA/IONO
Procedure: After four hours, the media was removed and spun at 1000 RPM for 5 minutes. The cleared supernatant was stored at −80° C. prior to analysis.

[9] = Parallel Artificial Membrane Permeability Assay (PAMPA); settings: PAMPA at pH 7.4

human platelet 12-lipoxygenase (12-LOX), sequence (P18054 whole entry): as above
human epithelial 15-lipoxygenase-2 (15-LOX-2), sequence (O15296 whole entry): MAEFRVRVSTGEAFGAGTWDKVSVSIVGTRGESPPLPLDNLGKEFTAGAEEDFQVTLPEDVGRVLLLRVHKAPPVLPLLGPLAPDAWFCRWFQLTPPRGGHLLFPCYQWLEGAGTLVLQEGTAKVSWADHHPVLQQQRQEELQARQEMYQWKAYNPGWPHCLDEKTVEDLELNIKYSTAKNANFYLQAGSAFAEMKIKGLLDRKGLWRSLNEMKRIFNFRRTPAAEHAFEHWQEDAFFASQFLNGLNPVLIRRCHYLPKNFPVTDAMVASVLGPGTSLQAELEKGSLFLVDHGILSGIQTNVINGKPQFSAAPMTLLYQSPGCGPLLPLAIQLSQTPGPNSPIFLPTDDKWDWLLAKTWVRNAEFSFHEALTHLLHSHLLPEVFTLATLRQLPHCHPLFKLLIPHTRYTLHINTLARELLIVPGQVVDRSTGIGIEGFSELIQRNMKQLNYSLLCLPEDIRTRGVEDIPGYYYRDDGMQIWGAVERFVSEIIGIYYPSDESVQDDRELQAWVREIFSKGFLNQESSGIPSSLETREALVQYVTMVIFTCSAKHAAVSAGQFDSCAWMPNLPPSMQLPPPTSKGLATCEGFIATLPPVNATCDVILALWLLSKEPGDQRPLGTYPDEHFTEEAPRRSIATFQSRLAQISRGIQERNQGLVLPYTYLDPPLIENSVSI

Compound: O=S(=O)(Nc1nccs1)c1ccc(NCc2ccccc2)cc1 [Compound 8, 4-(benzylamino)-N-(thiazol-2-yl)benzene sulfonamide]
- 12-LOX inhibitory activity (SAR, in words) [1]: complete loss of activity
- IC50 [1]: > 40 µM

Compound: COc1cccc(CNc2ccc(S(=O)(=O)Nc3nccs3)cc2)c1O [Compound 1, 4-(2-hydroxy-3-methoxybenzylamino)-N-(thiazol-2-yl)benzenesulfonamide]
- IC50 [2]: > 40 µM

Compound: Nc1ccccc1CNc1ccc(S(=O)(=O)Nc2nccs2)cc1 [Compound 13, 4-(2-aminobenzylamino)-N-(thiazol-2-yl)benzene sulfonamide]
- 12-LOX inhibitory activity (SAR, in words) [1]: negated all 12-LOX inhibitory activity
- IC50 [1]: > 40 µM

Compound: O=S(=O)(Nc1nccs1)c1ccc(NCc2ccccc2O)cc1 [Compound 9, 4-(2-hydroxybenzylamino)-N-(thiazol-2-yl)benzene sulfonamide]
- 12-LOX inhibitory activity (SAR, in words) [1]: complete loss of activity
- IC50 [1]: > 40 µM

Compound: COc1cccc(CNc2ccc(S(=O)(=O)Nc3nc4ccccc4o3)cc2)c1O [Compound 36, N-(benzo[d]oxazol-2-yl)-4-((2-hydroxy-3-methoxybenzyl)amino)benzenesulfonamide]
- PAR4-AP induced platelet aggregation (in words) (washed human platelets [3]): Comparable results
- PAR4-AP-induced calcium mobilization (in words) (washed human platelets [4]): Calcium mobilization was decreased; also recorded: Comparable results
- glucose-stimulated insulin secretion with cytokines [5]: Uncoupling of glucose-stimulated insulin secretion by cytokines is inhibited
- solubility ([6]; PBS buffer, pH 7.4, aqueous buffer): > 60 µg/mL
- improvement of solubility in buffer ([6]; relative to ML355): > 10 fold
- half-life ([7]; microsomes, rat, in the presence of NADPH, read-out: Microsomal stability T1/2): > 30 min
- microsomal degradation without NADPH ([7]; without NADPH present over a 1 h period): ^bRepresents the stability in the presence of NADPH. 35 and 36 showed no degradation without NADPH present over a 1 h period.
- mouse plasma stability remaining at 2 h (%) (mouse plasma stability): 100%
- PBS buffer (pH 7.4) stability at 48 h (%) [8]: 100%
- mode of inhibition (12-LOX): mixed inhibitors
- inhibition of 12-HETE in mouse beta cells (in words) (Mouse beta cells (BTC3)): Comparable results
- permeability (1 × 10^−6 cm/s) [9]: 168^c 1 × 10^−6 cm/s

Compound: O=S(=O)(Nc1nccs1)c1ccc(NCc2cccc(O)c2)cc1 [Compound 14, 4-(3-hydroxybenzylamino)-N-(thiazol-2-yl)benzene sulfonamide]
- IC50 [1]: > 40 µM

— patent US10752581B2, “4-((2-hydroxy-3-methoxybenzyl)amino)benzenesulfonamide derivatives as potent and selective inhibitors of 12-lipoxygenase” (Eastern Virginia Medical School, priority 2013, dated 2020)
